In general, Ki refers to a measure of affinity in units of concentration, obtained from inhibition or displacement.

The results in this text go back to ChEMBL document CHEMBL1132013, “Synthesis, computer modeling and biological evaluation of novel protein kinase C agonists based on a 7-membered lactam moiety” (Bioorg Med Chem Lett, 1999).

For assay [1], the target named is T1, Protein kinase C alpha type (Homo sapiens, UniProt P17252). Description: (§1) Displacement of [3H]PDBu from human recombinant Protein kinase C alpha. For orientation: Loss of bound radioactivity is the signal in a displacement assay; it reports binding, not function.
For assay [2], the system named is HL-60. Description: Inhibition of HL-60 monocyte cell proliferation. It is filed as functional. As to conditions: Homo sapiens, read-out: ED50 (the source's name).
Assay [3] relates to HL-60. Description: Inhibition of HL-60 monocyte cell proliferation; Range = 1-8 uM. It counts as functional. As to conditions: Homo sapiens, read-out: ED50 (the source's name).
Assay [4] concerns the target T1, Protein kinase C alpha type. The assay is described as §1. The source holds these as a separate data set.
Assay [5] has as its system HL-60. Description: Inhibition of HL-60 monocyte cell proliferation; Range = 0.3-0.7 uM. It is filed as functional. As to conditions: Homo sapiens, read-out: ED50 (the source's name).

For the compound `CCCCC1(CCCC)CC[C@H]2[C@H](C)C(=O)N[C@H](CO)C[C@]2(C)C1`, the Ki in assay [1] stood at 21 nM. For the same compound, in assay [2], the EC50 is 150 nM.

Regarding `C[C@@]12CCC[C@H]1[C@@H]1CC[C@H]3CC(=O)N[C@@H](CO)C[C@]3(C)[C@H]1CC2`, in assay [3], the EC50 was found to be 8000 nM. In assay [1], the inhibitory constant (Ki) is more than 500 nM.

Consider `CCCCC1(CCCC)CC[C@H]2CC(=O)N[C@H](CO)C[C@]2(C)C1`, for which the results for the Ki in assay [4] and in assay [1] were 80 nM and 60 nM, respectively. The EC50 in assay [5] came out at 700 nM.

Take `CC(C)CCCC(C)[C@H]1CC[C@H]2[C@@H]3CC[C@H]4CC(=O)N[C@H](CO)C[C@]4(C)[C@H]3CC[C@]12C` (some centres undefined): the EC50 in assay [3] came out at 8000 nM. Besides, the Ki in assay [1] is more than 500 nM.

For `C[C@@]12CCC[C@H]1[C@@H]1CC[C@H]3CC(=O)N[C@H](CO)C[C@]3(C)[C@H]1CC2`, the EC50 in assay [3] stood at 8000 nM. In addition, the Ki in assay [1] is more than 500 nM.

On to `CCCC[C@@H]1C(=O)N[C@H](CO)C[C@]2(C)CC(CCCC)(CCCC)CC[C@@H]12`, for which the Ki in assay [1] was 17 nM. The EC50 in assay [2] is 150 nM.

Turning to `CCCCC1(CCCC)CC[C@H]2CC(=O)N[C@@H](CO)C[C@]2(C)C1`, the EC50 in assay [5] came out at 700 nM. The inhibition constant Ki in assay [1] is 190 nM.

For the compound `CC(C)CCCC(C)[C@H]1CC[C@H]2[C@@H]3CC[C@H]4CC(=O)N[C@@H](CO)C[C@]4(C)[C@H]3CC[C@]12C` (some centres undefined), in assay [3], the EC50 was 8000 nM. Besides, the Ki in assay [1] is more than 500 nM.

For `CCCCCCCC[C@@H]1C(=O)N[C@H](CO)C[C@]2(C)CC(CCCC)(CCCC)CC[C@@H]12`, the Ki in assay [1] was 11 nM. In addition, the EC50 in assay [2] was 150 nM.
